# Experiments:
# [1] = test system: S. agalactiae (group B) ATCC 12400; assay: MIC, microdilution method (9.1); assay type: cell-based, Streptococcus agalactiae; details: Streptococcus agalactiae, ATCC12400, 18 h, read-out: MIC
# Description: (§1) The microdilution method recommended by the Clinical and Laboratory Standard Institute [M07-A8, Vol. 29, No. 2] was used. The activity of indolic compounds was tested against 29 bacterial strains belonging to 17 different species and 12 different genera (Staphylococcus, Streptococcus, Enterococcus, Listeria, Bacillus, Haemophilus, Escherichia, Klebsiella, Enterobacter, Serratia, Pseudomonas, and Acinetobacter). Bacterial inocula were prepared in Mueller Hinton broth (MH2, bioMérieux, Marcy L'Etoile, France), supplemented with 10% sheep blood for fastidious species (i.e., Streptococcus pneumoniae and Haemophilus influenzae). They were dispensed in 96 well microtiter plates (5×10^5 CFU/ml of final inoculum). Indolic compounds were added to the wells as to obtain two-fold serial concentrations (0.50-128 mg/L of final concentrations). Plates were incubated at 37° C. in ambient air, or at 37° C. in 5% CO2 enriched atmosphere for fastidious species. […] Drug-free cultures served as growth controls. Cultures receiving gentamicin, ciprofloxacin or cefotaxime served as positive controls.
# [2] = test system: S. pneumoniae ATCC 6303; assay: MIC, microdilution method (9.1); assay type: cell-based, Streptococcus pneumoniae; details: Streptococcus pneumoniae, ATCC6303, 10% sheep blood, 5% CO2, 18 h, read-out: MIC
# Description: as §1
# [3] = test system: E. faecium CIP 54.32; assay: MIC, microdilution method (9.1); assay type: cell-based, Enterococcus faecium; details: Enterococcus faecium, CIP54, 18 h, read-out: MIC
# Description: as §1
# [4] = test system: Acinetobacter baumanii ATCC 19606; assay: MIC, microdilution method (9.1); assay type: cell-based; details: Acinetobacter baumannii, ATCC19606, 18 h, read-out: MIC
# Description: as §1
# [5] = test system: Enterobacter cloacae ATCC13047; assay: MIC, microdilution method (9.1); assay type: cell-based; details: 18 h
# Description: as §1
# [6] = test system: Bacillus subtilis CIP 5262; assay: MIC, microdilution method (9.1); assay type: cell-based; details: CIP5262, 18 h, read-out: MIC
# Description: as §1
# [7] = test system: Haemophilus influenzae ATCC 49766; assay: MIC, microdilution method (9.1); assay type: cell-based; details: ATCC49766; Haemophilus influenzae ATCC 49766; 10% sheep blood, 5% CO2; 18 h; read-out: MIC
# Description: as §1
# [8] = test system: Pseudomonas aeruginosa CIP 5933; assay: MIC, microdilution method (9.1); assay type: cell-based; details: CIP5933, 18 h, read-out: MIC
# Description: as §1
# [9] = test system: Listeria innocua CIP 80.11; assay: MIC, microdilution method (9.1); assay type: cell-based; details: CIP80, 18 h, read-out: MIC
# Description: as §1
# [10] = test system: Escherichia coli ATCC 25922; assay: MIC, microdilution method (9.1); assay type: cell-based; details: ATCC25922, 18 h
# Description: as §1
# [11] = test system: Klebsiella pneumoniae API ATCC 35657; assay: MIC, microdilution method (9.1); assay type: cell-based; details: ATCC35657, 18 h, read-out: MIC
# Description: as §1
# [12] = test system: Serratia marcescens CIP 103551; assay: MIC, microdilution method (9.1); assay type: cell-based; details: CIP103551, 18 h
# Description: as §1
# [13] = test system: S. pneumoniae ATCC 49619; assay: MIC, microdilution method (9.1); assay type: cell-based; details: Streptococcus pneumoniae, ATCC49619, 10% sheep blood, 5% CO2, 18 h
# Description: as §1
# [14] = test system: S. aureus CIP 65.25 (MRSA); assay: MIC, microdilution method (9.1); assay type: cell-based, Staphylococcus aureus; details: Staphylococcus aureus, read after 18 h, read-out: MIC
# Description: as §1
# [15] = test system: S. aureus ATCC 29213; assay: MIC, microdilution method (9.1); assay type: cell-based, Staphylococcus aureus; details: Staphylococcus aureus, ATCC29213, read after 18 h, read-out: MIC
# Description: as §1
# [16] = test system: S. aureus ATCC 9144; assay: MIC, microdilution method (9.1); assay type: cell-based, Staphylococcus aureus; details: Staphylococcus aureus, ATCC9144, read after 18 h, read-out: MIC
# Description: as §1
# [17] = test system: S. aureus ATCC 25923; assay: MIC, microdilution method (9.1); assay type: cell-based, Staphylococcus aureus; details: Staphylococcus aureus, ATCC25923, read after 18 h, read-out: MIC
# Description: as §1
# [18] = test system: S. aureus ATCC 106414 (VISA); assay: MIC, microdilution method (9.1); assay type: cell-based, Staphylococcus aureus; details: Staphylococcus aureus, read after 18 h, read-out: MIC
# Description: as §1
# [19] = test system: S. aureus ATCC 6538; assay: MIC, microdilution method (9.1); assay type: cell-based, Staphylococcus aureus; details: Staphylococcus aureus, ATCC6538, read after 18 h, read-out: MIC
# Description: as §1
# [20] = test system: S. aureus CIP 65.6; assay: MIC, microdilution method (9.1); assay type: cell-based, Staphylococcus aureus; details: Staphylococcus aureus, CIP65, read after 18 h, read-out: MIC
# Description: as §1
# [21] = test system: S. aureus ATCC 33592 (MRSA); assay: MIC, microdilution method (9.1); assay type: cell-based, Staphylococcus aureus; details: Staphylococcus aureus, read after 18 h, read-out: MIC
# Description: as §1
# [22] = test system: S. aureus CIP 103428; assay: MIC, microdilution method (9.1); assay type: cell-based, Staphylococcus aureus; details: Staphylococcus aureus, CIP103428, read after 18 h, read-out: MIC
# Description: as §1
# [23] = test system: S. aureus SA-1199B; assay: MIC, microdilution method (9.1); assay type: cell-based, Staphylococcus aureus; details: Staphylococcus aureus, SA1199B, 18 h
# Description: as §1
# [24] = test system: S. pyogenes (group A) CIP 104226; assay: MIC, microdilution method (9.1); assay type: cell-based, Streptococcus pyogenes; details: Streptococcus pyogenes, CIP104226, 18 h, read-out: MIC
# Description: as §1
# [25] = test system: HCT116 (human colon tumor); assay: In vitro cytotoxicity; assay type: cell-based; details: read-out: % of cellular growth inhibition
# Description: (§2) In vitro cytotoxicity was assayed on three cell lines—KB (human mouth carcinoma), MCR5 (human lung fibroblast) and HCT116 (human colon tumor). Results are presented in table IV as % of cellular growth inhibition in presence of 10^−5 M and 10^−6 M of the tested bis-indolic derivatives.
# [26] = test system: KB (human mouth carcinoma); assay: In vitro cytotoxicity; assay type: cell-based; details: read-out: % of cellular growth inhibition
# Description: as §2
# [27] = test system: MRC5 (human lung fibroblast); assay: In vitro cytotoxicity; assay type: cell-based; details: read-out: % of cellular growth inhibition
# Description: as §2
# [28] = test system: S. mitis CIP 103335; assay: MIC, microdilution method (9.1); assay type: cell-based, Streptococcus mitis; details: Streptococcus mitis, CIP103335, 18 h, read-out: MIC
# Description: as §1
# [29] = test system: HCT116 (human colon tumor); assay: In vitro cytotoxicity; assay type: cell-based; details: HCT-116, HCT116, from 100 μM to 0.005 μM in DMSO, duplicate
# [30] = test system: S. epidermidis ATCC 12228; assay: MIC, microdilution method (9.1); assay type: cell-based, Staphylococcus epidermidis; details: Staphylococcus epidermidis, ATCC12228, read after 18 h, read-out: MIC
# Description: as §1
# [31] = test system: S. epidermidis CIP 103627; assay: MIC, microdilution method (9.1); assay type: cell-based, Staphylococcus epidermidis; details: Staphylococcus epidermidis, CIP103627, read after 18 h, read-out: MIC
# Description: as §1
# [32] = test system: S. epidermidis CIP 81.55; assay: MIC, microdilution method (9.1); assay type: cell-based, Staphylococcus epidermidis; details: Staphylococcus epidermidis, CIP81, read after 18 h, read-out: MIC
# Description: as §1
# [33] = test system: E. faecalis ATCC 29212; assay: MIC, microdilution method (9.1); assay type: cell-based, Enterococcus faecalis; details: Enterococcus faecalis, ATCC29212, 18 h, read-out: MIC
# Description: as §1
smiles,measurement,setting,value
"CC(C)(C)OC(=O)NCC(NC(=O)c1c[nH]c2cc(Br)ccc12)c1c[nH]c2ccc(Br)cc12 (stereo not shown) [Compound 3g, tert-Butyl(2-(5-bromo-1H-indol-3-yl)-2-(6-bromo-1H-indolyl-3-carboxamido)ethyl)carbamate]",MIC,[1],64 µg/mL
same,MIC,[2],32 µg/mL
same,MIC,[3],> 128 µg/mL
same,MIC,[4],> 128 µg/mL
same,MIC,[5],> 128 µg/mL
same,MIC,[6],32 µg/mL
same,MIC,[7],64 µg/mL
same,MIC,[8],> 128 µg/mL
same,MIC,[9],128 µg/mL
same,MIC,[10],> 128 µg/mL
same,MIC,[11],> 128 µg/mL
same,MIC,[12],> 128 µg/mL
same,MIC,[13],32 µg/mL
same,MIC,[14],1 µg/mL
same,MIC,[15],2 µg/mL
same,MIC,[16],2 µg/mL
same,MIC,[17],2 µg/mL
same,MIC,[18],1 µg/mL
same,MIC,[19],2 µg/mL
same,MIC,[20],2 µg/mL
same,MIC,[21],2 µg/mL
same,MIC,[22],1 µg/mL
same,MIC,[23],2 µg/mL
same,MIC,[24],64 µg/mL
same,inhibition at 10 µM,"[25]; HCT-116, 10^−5 M",86 ± 2%
same,inhibition at 1 µM,"[25]; HCT-116, 10^−6 M",9%
same,inhibition at 10 µM,[26]; 10^−5 M,98 ± 1%
same,inhibition at 1 µM,[26]; 10^−6 M,0%
same,inhibition at 10 µM,[27]; 10^−5 M,83 ± 10%
same,inhibition at 1 µM,[27]; 10^−6 M,0%
same,MIC,[28],64 µg/mL
same,IC50,[29]; first value,5.48 µM
same,IC50,[29]; second value,6.06 µM
same,MIC,[30],1 µg/mL
same,MIC,[31],2 µg/mL
same,MIC,[32],2 µg/mL
same,MIC,[33],> 128 µg/mL
